Data as given in ChEMBL document CHEMBL1201862, “PubChem BioAssay data set” (2004).
Calls of active or inactive are those of the source.

What was measured:
[1] = biological target: Fructose-bisphosphate aldolase (Mycobacterium tuberculosis, UniProt P9WQA3); test: Fluorescence-based biochemical high throughput dose response assay for inhibitors of the fructose-bisphosphate aldolase (FBA) of M. tuberculosis.; format: functional
[2] = biological target: T1, Corticotropin-releasing factor receptor 2/Corticotropin-releasing factor-binding protein (Homo sapiens, UniProt P24387+Q13324); test: Dose Response confirmation of uHTS hits for small molecule antagonists of the CRF-binding protein and CRF-R2 receptor complex.; format: functional; settings: read-out: IC50_Mean
T1 sequence (Q13324 whole entry): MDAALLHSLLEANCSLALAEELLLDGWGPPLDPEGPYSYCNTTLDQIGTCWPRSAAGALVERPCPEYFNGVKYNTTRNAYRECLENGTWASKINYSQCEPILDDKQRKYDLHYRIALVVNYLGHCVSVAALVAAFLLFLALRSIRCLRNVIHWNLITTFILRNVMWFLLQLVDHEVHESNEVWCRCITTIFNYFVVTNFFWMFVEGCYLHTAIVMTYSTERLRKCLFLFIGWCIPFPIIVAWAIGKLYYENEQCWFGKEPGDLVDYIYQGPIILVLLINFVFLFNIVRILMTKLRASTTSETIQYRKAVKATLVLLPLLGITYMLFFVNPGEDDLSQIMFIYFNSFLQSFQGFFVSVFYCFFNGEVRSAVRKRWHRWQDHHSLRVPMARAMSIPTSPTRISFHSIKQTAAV
T1 sequence (P24387 whole entry): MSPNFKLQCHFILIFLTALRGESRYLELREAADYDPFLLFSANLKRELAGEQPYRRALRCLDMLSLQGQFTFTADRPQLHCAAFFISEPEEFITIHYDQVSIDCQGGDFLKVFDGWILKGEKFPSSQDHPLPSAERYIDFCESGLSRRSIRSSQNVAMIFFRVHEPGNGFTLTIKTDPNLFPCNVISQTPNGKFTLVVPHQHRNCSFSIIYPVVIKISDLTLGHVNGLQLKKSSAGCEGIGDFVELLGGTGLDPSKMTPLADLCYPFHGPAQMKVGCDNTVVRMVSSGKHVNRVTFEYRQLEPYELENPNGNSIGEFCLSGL

[3] = biological target: T1, Corticotropin-releasing factor receptor 2/Corticotropin-releasing factor-binding protein; test: activators of CRF receptor 2 with binding protein – uHTS hits, confirmation (AID 602473); format: functional; settings: read-out: EC50_Mean
[4] = CRF-BP/CRF-R2 complex antagonists, dose response, cell-based, uHTS hits, 384-well (AID 651639); format: functional, Homo sapiens; settings: read-out: IC50_Mean
[5] = ADAM10 inhibitors, peptide cleavage, dose response, biochemical, QFRET (AID 743254);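 note: ADAM10 enzyme with the DM2 quenched FRET peptide as substrate; EDANS fluorescence gain as the protease cuts the substrate; inhibitor potency against ADAM10 proteolytic activity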
[6] = biological target: T2, Disintegrin and metalloproteinase domain-containing protein 17 (Homo sapiens, UniProt P78536); test: ADAM17 protease inhibitors, dose response, counter-screen for ADAM10 exosite inhibitor project, biochemical, quenched FRET substrate (AID 743253)
[7] = cells; format: functional, cell-based
[8] = biological target: T3, Trace amine-associated receptor 1 (Homo sapiens, UniProt Q96RJ0); test: Fluorescence-based cell-based high throughput dose response assay to identify agonists of the human trace amine associated receptor 1 (TAAR1).; format: functional
T3 sequence (Q96RJ0 whole entry): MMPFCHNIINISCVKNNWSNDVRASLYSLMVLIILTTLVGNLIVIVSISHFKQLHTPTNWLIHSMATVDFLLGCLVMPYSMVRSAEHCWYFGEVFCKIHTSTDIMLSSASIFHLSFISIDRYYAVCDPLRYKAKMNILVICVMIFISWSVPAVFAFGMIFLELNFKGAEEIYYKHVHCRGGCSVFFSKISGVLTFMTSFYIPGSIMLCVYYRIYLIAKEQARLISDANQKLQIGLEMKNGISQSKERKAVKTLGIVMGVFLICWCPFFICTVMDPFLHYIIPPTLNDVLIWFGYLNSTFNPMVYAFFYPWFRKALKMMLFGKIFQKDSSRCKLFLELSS

[9] = biological target: T3, Trace amine-associated receptor 1; test: Counterscreen for agonists of the human trace amine associated receptor 1 (hTAAR1): Fluorescence-based cell-based high throughput dose response assay to identify hTAAR1 agonist that also desensitize TAAR1 receptor response.; format: functional
[10] = cells; format: functional, cell-based; remark: listed apart in the source
[11] = biological target: Nuclear receptor subfamily 5 group A member 2 (Homo sapiens, UniProt O00482); format: functional, cell-based;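 note: HEK293T cells transfected with LRH-1 and a StAR promoter luciferase reporter; potency for inhibitors that lower LRH-1 driven reporter light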
[12] = biological target: Steroidogenic factor 1 (Homo sapiens, UniProt Q13285); test: Counterscreen for inverse agonists of the liver receptor homolog-1 (LRH-1; NR5A2): Luminescence-based cell-based high throughput dose response assay to identify inverse agonists of the Steroidogenic Factor 1 Nuclear Receptor (SF1; NR5A1).; format: functional
[13] = StAR promoter reporter inhibition counter-screen, dose response, counter-screen for LRH-1 inverse agonist project, cell-based, luminescence, luciferase reporter (AID 651969); format: functional
[14] = biological target: Mitogen-activated protein kinase 10 (Homo sapiens, UniProt P53779); test: Dose response biochemical screening assay for inhibitors of c-Jun N-Terminal Kinase 3 (JNK3). [Related pubchem assays: 746 ]
[15] = biological target: T4, Protein skinhead-1 (Caenorhabditis elegans, UniProt P34707); format: functional
T4 sequence (P34707 whole entry): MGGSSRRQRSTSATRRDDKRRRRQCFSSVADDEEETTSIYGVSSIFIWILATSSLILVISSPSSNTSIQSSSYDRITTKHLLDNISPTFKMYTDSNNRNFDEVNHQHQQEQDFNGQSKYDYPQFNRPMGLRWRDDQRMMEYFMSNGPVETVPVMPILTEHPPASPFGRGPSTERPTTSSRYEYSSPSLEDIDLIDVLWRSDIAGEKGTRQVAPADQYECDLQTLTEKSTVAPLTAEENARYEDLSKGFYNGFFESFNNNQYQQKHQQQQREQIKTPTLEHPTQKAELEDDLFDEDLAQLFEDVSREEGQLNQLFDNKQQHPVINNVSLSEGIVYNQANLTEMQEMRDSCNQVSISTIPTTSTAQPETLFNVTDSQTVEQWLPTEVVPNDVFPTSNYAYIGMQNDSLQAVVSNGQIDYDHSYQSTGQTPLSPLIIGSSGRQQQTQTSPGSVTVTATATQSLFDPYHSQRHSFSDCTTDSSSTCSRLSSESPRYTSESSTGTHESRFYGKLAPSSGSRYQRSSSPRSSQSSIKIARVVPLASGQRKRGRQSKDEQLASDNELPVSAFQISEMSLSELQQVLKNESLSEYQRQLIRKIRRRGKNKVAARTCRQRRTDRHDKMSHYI

[16] = human group III sPLA2 inhibitors, dose response, biochemical, QFRET, IC50 (AID 743457);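 note: green fluorescence rise as the enzyme cleaves BODIPY PC-A2 in liposomes; potency for inhibition of the enzyme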
[17] = biological target: T2, Disintegrin and metalloproteinase domain-containing protein 17; test: exosite inhibitors of ADAM17, dose response, biochemical (AID 743260)
[18] = ADAM10 protease inhibitors, dose response, selectivity assay for ADAM17 exosite inhibitor project, biochemical, FRET peptide substrate, recombinant human ADAM10 (AID 743259);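 note: ADAM10 enzyme cleaving a FRET peptide substrate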
[19] = Luminescence Cell-Based Dose Confirmation HTS to Identify Activators of 5'UTR Stem-Loop Driven Alpha-Synuclein mRNA Translation in H4 Neuroglioblastoma Cells. [Related pubchem assays: 1829 (Project Summary), 1814 (Primary HTS)]; format: functional
[20] = Luminescence Cell-Based Dose Response HTS to Identify Activators of Luciferase Translation or Activity in H4 […] Cells. [Related pubchem assays: 1829 (Project Summary), 1814 (Primary HTS)]; format: functional
[21] = tested on: H4; test: Luminescence Cell-Based Dose Response HTS to Identify Activators of 5'UTR Stem-Loop Driven Prion Protein mRNA Translation in H4 Neuroglioblastoma Cells. [Related pubchem assays: 1829 (Project Summary), 1814 (Primary HTS)]; format: functional; settings: Homo sapiens
[22] = cells; settings: A549
[23] = cells; settings: HEK293
[24] = biological target: Paired box protein Pax-8 (Homo sapiens, UniProt Q06710); test: inhibitors of PAX8-driven TPO luciferase reporter, dose response, RMG-I cells, cherry-pick (AID 687027); format: functional, cell-based;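 note: luciferase reporter driven by Pax8 target thyroperoxidase promoter measured by SteadyGlo luminescence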
[25] = NIH:OVCAR-3 ovarian cancer cell cytotoxicity, dose response, PAX8 inhibitor project, plate reader, dry powder samples (AID 743044); format: functional, cell-based
[26] = IGROV1 ovarian cancer cell cytotoxicity, dose response, PAX8 inhibitor project, plate reader, dry powder samples (AID 743043); format: functional, cell-based; settings: IGROV-1
[27] = non-specific cell cytotoxicity, dose response, cytotoxicity control for PAX8 inhibitor project, plate reader, dry powder samples (AID 743021); format: functional, cell-based
[28] = cytotoxicity in OVCAR8 ovarian cancer cells, dose response, PAX8 project, cell-based, plate reader, dry powder samples (AID 743197); format: functional; settings: OVCAR-8
[29] = T. cruzi growth inhibition in host cells, dose response, cell-based, plate reader, dry powder, set 2 (AID 652275); format: functional
[30] = biological target: fMet-Leu-Phe receptor (Homo sapiens, UniProt P21462); test: FPR ligands, dose response (AID 519); format: functional
Sequence of fMet-Leu-Phe receptor (P21462 whole entry): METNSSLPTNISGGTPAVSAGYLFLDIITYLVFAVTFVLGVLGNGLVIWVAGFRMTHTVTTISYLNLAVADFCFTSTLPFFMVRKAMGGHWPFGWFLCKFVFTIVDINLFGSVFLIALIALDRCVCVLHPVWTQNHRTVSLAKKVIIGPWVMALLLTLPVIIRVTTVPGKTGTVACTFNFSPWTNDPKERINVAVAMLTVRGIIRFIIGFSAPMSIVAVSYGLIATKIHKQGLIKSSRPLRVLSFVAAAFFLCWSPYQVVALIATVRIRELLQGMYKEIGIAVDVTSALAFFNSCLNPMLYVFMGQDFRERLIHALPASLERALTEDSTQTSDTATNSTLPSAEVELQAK

T2 sequence (P78536 whole entry, the tested form may be a part): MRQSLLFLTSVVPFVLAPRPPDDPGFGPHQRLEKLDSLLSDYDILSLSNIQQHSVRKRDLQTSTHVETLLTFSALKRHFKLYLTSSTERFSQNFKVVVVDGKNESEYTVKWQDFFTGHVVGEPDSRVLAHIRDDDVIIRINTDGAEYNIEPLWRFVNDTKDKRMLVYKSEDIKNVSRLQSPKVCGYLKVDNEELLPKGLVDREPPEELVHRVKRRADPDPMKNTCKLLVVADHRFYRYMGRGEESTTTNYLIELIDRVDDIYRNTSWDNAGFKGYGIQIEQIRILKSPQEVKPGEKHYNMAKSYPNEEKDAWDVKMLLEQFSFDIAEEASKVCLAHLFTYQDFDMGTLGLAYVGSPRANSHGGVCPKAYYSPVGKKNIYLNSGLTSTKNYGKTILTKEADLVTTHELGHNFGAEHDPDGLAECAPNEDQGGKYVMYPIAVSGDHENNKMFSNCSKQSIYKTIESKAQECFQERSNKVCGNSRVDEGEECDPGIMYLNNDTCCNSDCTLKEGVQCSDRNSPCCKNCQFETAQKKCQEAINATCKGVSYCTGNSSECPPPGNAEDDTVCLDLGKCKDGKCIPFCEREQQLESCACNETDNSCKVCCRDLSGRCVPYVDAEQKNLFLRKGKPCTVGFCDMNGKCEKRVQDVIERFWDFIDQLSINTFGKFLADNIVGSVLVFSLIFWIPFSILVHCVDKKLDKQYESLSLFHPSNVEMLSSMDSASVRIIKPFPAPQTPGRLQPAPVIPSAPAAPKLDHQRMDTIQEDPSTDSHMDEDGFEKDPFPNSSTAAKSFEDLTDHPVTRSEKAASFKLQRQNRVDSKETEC
Sequence of Nuclear receptor subfamily 5 group A member 2 (O00482 whole entry): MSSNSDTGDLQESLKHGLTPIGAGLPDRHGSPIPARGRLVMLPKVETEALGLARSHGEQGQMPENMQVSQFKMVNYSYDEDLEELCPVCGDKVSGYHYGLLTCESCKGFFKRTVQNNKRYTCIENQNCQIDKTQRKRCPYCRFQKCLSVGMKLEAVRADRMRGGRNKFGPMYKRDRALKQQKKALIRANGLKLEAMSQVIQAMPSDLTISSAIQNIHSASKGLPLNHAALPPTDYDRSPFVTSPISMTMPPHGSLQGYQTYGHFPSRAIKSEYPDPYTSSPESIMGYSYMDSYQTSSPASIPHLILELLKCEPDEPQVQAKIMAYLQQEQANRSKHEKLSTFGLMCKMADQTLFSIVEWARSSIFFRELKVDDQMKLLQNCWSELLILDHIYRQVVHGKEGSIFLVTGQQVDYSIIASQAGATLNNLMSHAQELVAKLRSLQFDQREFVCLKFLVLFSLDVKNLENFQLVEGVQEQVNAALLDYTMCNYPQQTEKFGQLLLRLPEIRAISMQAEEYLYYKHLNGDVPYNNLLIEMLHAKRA
Sequence of Steroidogenic factor 1 (Q13285 whole entry): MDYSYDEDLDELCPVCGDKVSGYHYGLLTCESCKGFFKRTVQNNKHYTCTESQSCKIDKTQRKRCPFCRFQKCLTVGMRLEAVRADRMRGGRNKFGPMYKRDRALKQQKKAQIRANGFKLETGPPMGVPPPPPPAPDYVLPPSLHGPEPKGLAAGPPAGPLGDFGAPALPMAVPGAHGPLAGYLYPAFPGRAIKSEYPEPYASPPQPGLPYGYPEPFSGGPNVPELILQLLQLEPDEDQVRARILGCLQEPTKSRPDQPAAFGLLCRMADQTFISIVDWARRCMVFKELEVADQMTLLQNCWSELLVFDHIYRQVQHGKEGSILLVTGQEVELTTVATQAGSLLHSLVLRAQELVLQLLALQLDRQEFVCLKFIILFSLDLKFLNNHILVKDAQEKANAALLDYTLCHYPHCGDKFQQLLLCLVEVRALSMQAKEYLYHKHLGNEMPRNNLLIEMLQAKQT
Sequence of Fructose-bisphosphate aldolase (P9WQA3 whole entry): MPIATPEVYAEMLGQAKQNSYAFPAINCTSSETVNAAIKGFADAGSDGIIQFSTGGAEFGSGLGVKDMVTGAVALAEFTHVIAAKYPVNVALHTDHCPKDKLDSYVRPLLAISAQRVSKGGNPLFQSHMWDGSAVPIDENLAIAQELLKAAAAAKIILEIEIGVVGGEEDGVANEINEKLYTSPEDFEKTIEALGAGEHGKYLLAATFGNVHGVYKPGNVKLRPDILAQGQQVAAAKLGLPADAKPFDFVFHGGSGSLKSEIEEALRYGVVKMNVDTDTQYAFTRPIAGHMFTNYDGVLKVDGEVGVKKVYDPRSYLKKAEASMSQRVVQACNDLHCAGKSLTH
Sequence of Paired box protein Pax-8 (Q06710 whole entry): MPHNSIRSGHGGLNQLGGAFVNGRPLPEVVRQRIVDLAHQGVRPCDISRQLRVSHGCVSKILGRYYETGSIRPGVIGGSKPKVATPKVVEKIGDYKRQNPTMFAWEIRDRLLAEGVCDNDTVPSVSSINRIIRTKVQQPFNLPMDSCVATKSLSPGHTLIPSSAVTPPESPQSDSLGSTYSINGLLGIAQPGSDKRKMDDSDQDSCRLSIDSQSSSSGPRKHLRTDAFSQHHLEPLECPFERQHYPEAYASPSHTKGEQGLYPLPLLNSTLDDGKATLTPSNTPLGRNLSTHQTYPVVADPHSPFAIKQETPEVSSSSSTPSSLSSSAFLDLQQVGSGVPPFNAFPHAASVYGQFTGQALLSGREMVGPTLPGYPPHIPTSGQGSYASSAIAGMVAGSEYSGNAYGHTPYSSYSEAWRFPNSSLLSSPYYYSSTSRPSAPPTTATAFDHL
Sequence of Mitogen-activated protein kinase 10 (P53779 whole entry): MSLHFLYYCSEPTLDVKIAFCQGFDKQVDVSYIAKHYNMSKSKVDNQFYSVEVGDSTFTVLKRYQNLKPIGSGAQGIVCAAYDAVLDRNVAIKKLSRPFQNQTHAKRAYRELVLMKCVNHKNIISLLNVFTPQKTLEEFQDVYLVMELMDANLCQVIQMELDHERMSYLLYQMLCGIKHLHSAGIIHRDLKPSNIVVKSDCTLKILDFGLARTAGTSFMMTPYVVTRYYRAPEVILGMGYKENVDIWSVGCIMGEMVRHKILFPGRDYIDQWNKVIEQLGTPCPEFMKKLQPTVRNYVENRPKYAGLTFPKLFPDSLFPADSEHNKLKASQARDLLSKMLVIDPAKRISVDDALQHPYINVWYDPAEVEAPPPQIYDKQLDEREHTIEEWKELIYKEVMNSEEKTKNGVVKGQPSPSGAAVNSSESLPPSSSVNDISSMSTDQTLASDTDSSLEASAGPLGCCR

OCc1ccc2c(c1)c(-c1ccc3c(c1)OCCO3)c(-c1ccccc1)n2-c1ccccc1
IC50 [1]: 0.913 µM (active)

COc1cccc(CN2C(=O)C(C)N(C(=O)c3ccccc3)c3ccccc32)c1 (stereo unspecified)
IC50 [2]: 26.9 µM (active)
EC50 [3]: > 53 µM (inactive)
IC50 [4]: 9.26 µM (active)

C=CCC[C@@H](Cc1ccc(F)cc1)C(=O)OC[C@@H](NC(=O)[C@H](CC=C)CC(=O)N(CCO)Cc1ccccc1)c1ccccc1
IC50 [5]: 27.4 µM (inactive)
IC50 [6]: > 69.5 µM (inactive)

Cc1cc(O)nc(Nc2cccc(F)c2)n1
IC50 [7]: > 29.9 µM (inactive)
EC50 [8]: 8.54 µM (active)
IC50 [9]: > 29.9 µM (inactive)
EC50 [10]: > 29.9 µM (inactive)

Cc1cc(Br)ccc1NC(=O)CN1C(=O)C2CC=CCC2C1=O (stereo unspecified)
IC50 [11]: 0.169 µM (active)
IC50 [12]: 0.105 µM (active)
IC50 [13]: 35.9 µM (inactive)

O=C(Nc1ccc(-c2nc3cccnc3s2)cc1)c1ccco1
IC50 [14]: > 93.1 µM (not active)
IC50 [15]: 83.1 µM (inactive)
IC50 [1]: 1.32 µM (active)

Cn1cccc1CC(=O)NN=C(S)Nc1ccccc1Cl
IC50 [16]: > 122 µM (inactive)

O=C(CSc1ccc(Cl)cc1Cl)N1CCC(c2nc3ccccc3s2)CC1
IC50 [5]: 22.1 µM (inactive)
IC50 [17]: > 69.5 µM (inactive)
IC50 [18]: 18.8 µM (inactive)
IC50 [6]: > 69.5 µM (inactive)

O=C(COc1ccc2c3c(c(=O)oc2c1)CCC3)NCc1ccncc1
IC50 [11]: 35.9 µM (inactive)
IC50 [12]: 35.9 µM (inactive)
IC50 [13]: 35.9 µM (inactive)

COC(=O)c1cc(=O)n(Cc2ccc3c(c2)OCO3)/c(=N/c2ccc(F)c(Cl)c2)s1
EC50 [19]: 10.4 µM (active)
EC50 [20]: > 120 µM (not active)
EC50 [21]: > 120 µM (not active)
AC50 [22]: 23.3 µM (active)
AC50 [23]: 20 µM (active)

CC(=O)c1ccc(NC(=O)Nc2ccccc2)cc1
IC50 [7]: 29.8 µM (inactive)
EC50 [8]: 3.14 µM (active)
IC50 [9]: > 3.32 µM (active)
EC50 [10]: > 29.9 µM (inactive)

C[C@@H]1CN([C@@H](C)CO)C(=O)Cc2cc(NC(=O)Nc3ccc4c(c3)OCO4)ccc2O[C@H]1CN(C)CC1CCCCC1
AC50 [24]: 9.15 µM (active)
AC50 [25]: 37 µM (active)
AC50 [26]: 58.1 µM (active)

C[C@H](CO)N1C[C@H](C)[C@H](CN(C)Cc2ccc(C(F)(F)F)cc2)OCCCC[C@H](C)Oc2ccc(NS(=O)(=O)c3ccccc3)cc2C1=O
AC50 [24]: 9.01 µM (active)
AC50 [25]: 45 µM (active)
AC50 [26]: 55.8 µM (active)
AC50 [27]: 55.7 µM (active)
AC50 [28]: 48.9 µM (active)

CN(C)C(=O)c1ccc(-c2ccc([C@H]3[C@H](CO)N4CCCCN(Cc5cncnc5)C[C@@H]34)cc2)cc1
AC50 [29]: 0.472 µM (active)

O=S(=O)(Nc1cc(Cl)ccc1-n1cncn1)c1ccccc1Cl
IC50 [2]: 32.6 µM (active)
EC50 [3]: > 53 µM (inactive)
IC50 [4]: > 20 µM (inactive)

COc1ccc(C(=O)C2=C(O)C(=O)N(CCN3CCOCC3)C2c2ccc(C)cc2)cc1 (stereo unspecified)
Ki [30]: > 66.7 µM (inactive)
